Data set [1] has as its target T1, CDK2/cycline E (Homo sapiens, UniProt P24941).
T1 construct: made in house; host or cells: Sf21 insect cells (baculovirus coinfection)
Briefly: CDK2/cyclineE Flashplate test in 96-well format. The data set is classed as biochemical. Here is the method:
Purification of the CDK2/cyclineE-(His)6 Complex by IMAC (Immobilized Metal Affinity Chromatography):
Two recombinant baculoviruses bearing the human sequences coding, respectively, for CDK2 and cyclineE (the latter bearing a C-terminal hexahistidine tag) are used to coinfect Sf21 insect cells. Two to three days after the start of coinfection, the cells are harvested by centrifugation and then stored at −40° C. until the time of use. After thawing and mechanical lysis of the cells, the complex present in the lysis supernatant is purified by affinity chromatography on nickel (IMAC), and stored at −80° C.
CDK2/cyclineE Flashplate Test in 96-Well Format.
A format in streptavidin-coated 96-well plates is used to test the activity of the compounds on the kinase activity of CDK2/cycline E.
To perform this test, the biotinylated peptide substrate, a fragment of the protein pRb (biotinyl-[…]—OH) (SEQ ID NO: 1), is dissolved at a concentration of 1 mM in kinase buffer (HEPES/NaOH 50 mM, NaCl 1 mM, MgCl2 5 mM, pH 7.5) in order to constitute a stock solution stored at −20° C. in the form of 110 μL aliquots. On the day of the experiment, an aliquot of this solution is thawed and diluted in kinase buffer containing 1 mM of dithiothreitol, added to the buffer extemporaneously, in order to obtain a concentration of 14.3 μM. 70 μL of this solution are added to each well of the Flashplate in order to obtain a final substrate concentration of 10 μM during the enzymatic reaction performed in a final volume of the reaction medium of 100 μL (cf. below).
Intermediate dilutions of inhibitors (products of the invention) at various concentrations are prepared in DMSO from stock solutions at 10 mM in separate tubes. […]
When the incubation is complete, the plate is washed three times with 300 μL per well of PBS (phosphate-buffered saline, pH=7.4, without calcium or magnesium, reference 10010-015, Gibco BRL). The incorporation of ^33P to the peptide is quantified by scintillation counting with a Packard Topcount.NXT machine. […]

Data set [2] addresses T2, Aurora2 (Homo sapiens, UniProt O14965).
T2 construct: A complete recombinant Aurora2 enzyme, the N-terminal of which was labeled with histidine, was expressed in E. coli; His tag (N); made in house; host or cells: E. coli
T2 sequence (O14965 1-403): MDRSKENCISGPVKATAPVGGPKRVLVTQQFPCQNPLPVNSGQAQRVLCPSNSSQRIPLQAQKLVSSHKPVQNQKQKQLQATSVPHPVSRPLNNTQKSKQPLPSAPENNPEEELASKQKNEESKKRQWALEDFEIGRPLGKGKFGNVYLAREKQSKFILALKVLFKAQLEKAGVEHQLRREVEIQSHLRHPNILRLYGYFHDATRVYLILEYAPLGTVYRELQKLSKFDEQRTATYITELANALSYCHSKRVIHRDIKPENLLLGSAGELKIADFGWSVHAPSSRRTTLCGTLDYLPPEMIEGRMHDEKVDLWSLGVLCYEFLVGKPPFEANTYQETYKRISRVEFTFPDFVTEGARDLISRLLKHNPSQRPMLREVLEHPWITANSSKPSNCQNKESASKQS
Description: Aurora2 kinase radioactivity scintillation test using nickel chelate. The data set is classed as biochemical. Here is the method:
The inhibitory effect of the compounds toward the kinase Aurora2 is determined via a radioactivity scintillation test using nickel chelate.
A complete recombinant Aurora2 enzyme, the N-terminal of which was labeled with histidine, was expressed in E. coli and purified to a quality close to homogeneity.
The C-terminal fragment (Q1687-H2101) of an NuMA (Nuclear protein which is associated with the Mitotic Apparatus) expressed in E. coli, and the N-terminal end of which was labeled with histidine, was purified by nickel chelate chromatography and used as substrate in the Aurora2 kinase test.
To determine the kinase activity, the substrate NuMA is equilibrated by chromatography on a PD10 Pharmacia column, in a buffer (50 mM Tris-HCl, pH 7.5, 50 mM NaCl, 10 mM MgCl2) supplemented with 10% (v/v) of glycerol and 0.05% (w/v) of NP40.
The kinase activity of Aurora2 is measured by scintillation with nickel chelate (New England Nuclear, SMP107 model). Each well contains 100 μl of the following solution: 0.02 μM of Aurora2; 0.5 μM of NuMA substrate; 1 μM of ATP supplemented with 0.5 μCi of ATP-[^33P]. The solutions are incubated for 30 minutes at 37° C. The test buffer is then removed and the wells are rinsed twice with 300 μl of kinase buffer. The radioactivity is measured in each well using a Packard Model Top Count NXT machine.
The background noise is deduced by measuring radioactivity measured in duplicate in wells containing the radioactive ATP alone containing buffered kinase treated in the same manner as for the other samples.
The activity of the control is determined by measuring in duplicate the radioactivity in the complete test mixture (ATP, Aurora2 and substrate NuMA), in the absence of test compound.
The inhibition of the activity of Aurora2 with a compound of the invention is expressed as a percentage of inhibition of the control activity in the absence of test compound. Staurosporin is added to each plate as inhibition control.
The activity of the products was determined by measuring the inhibition of Aurora2 activity.

The target in data set [3] is T3, human Tie2 (Homo sapiens, UniProt Q02763).
T3 construct: amino acids of the intracellular domain 776-1124; made in house; host or cells: baculovirus expression (pFastBacGT vector)
T3 sequence (Q02763 776-1124): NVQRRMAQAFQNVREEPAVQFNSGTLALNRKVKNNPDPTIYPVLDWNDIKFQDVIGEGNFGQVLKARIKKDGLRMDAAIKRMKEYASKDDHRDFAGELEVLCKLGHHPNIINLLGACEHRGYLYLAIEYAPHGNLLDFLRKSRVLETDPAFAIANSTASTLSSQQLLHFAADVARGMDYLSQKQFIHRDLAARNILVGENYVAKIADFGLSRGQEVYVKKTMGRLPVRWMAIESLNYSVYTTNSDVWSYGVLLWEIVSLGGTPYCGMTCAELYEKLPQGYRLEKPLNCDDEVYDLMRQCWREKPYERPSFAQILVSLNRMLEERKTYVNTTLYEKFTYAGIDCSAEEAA
Briefly: Test of phosphorylation of PLC with Tie2 (GST-Tie2). The data set is classed as biochemical. As for the experimental part:
The coding sequence of human Tie2 corresponding to the amino acids of the intracellular domain 776-1124 was generated by PCR using the cDNA isolated from a human placenta as a model. This sequence was introduced into a pFastBacGT baculovirus expression vector in the form of a GST fusion protein.
The inhibitory effect of the molecules is determined in a test of phosphorylation of PLC with Tie2 in the presence of GST-Tie2 purified to about 80% homogeneity. The substrate is composed of the SH2-SH3 fragments of PLC expressed in the form of a GST fusion protein.
The kinase activity of Tie2 is measured in a MOPS 20 mM pH 7.2 buffer, containing 10 mM MgCl2, 10 mM MnCl2, 1 mM DTT, 10 mM of glycerophosphate. In a 96-well FlashPlate plate maintained on ice, a reaction mixture is deposited, composed of 70 μL of kinase buffer containing 100 ng of enzyme GST-Tie2 per well. Next, 10 μL of the test molecule diluted in DMSO to a maximum concentration of 10% are added. For a given concentration, each measurement is performed four times. The reaction is initiated by adding 20 μL of solution containing 2 μg of GST-PLC, 2 μm of cold ATP and 1 μCi of ^33P [ATP]. […] The radioactivity is measured on a MicroBeta1450 Wallac.
The inhibition of the Tie2 activity is calculated and expressed as a percentage of inhibition relative to the control activity determined in the absence of compound.

Molecules are shown by their SMILES. Where a name gives a salt, the structure may show the parent alone.

`O=C(NOc1ccccc1)c1cc2c(/C=C/c3ccccc3)n[nH]c2s1` [Example 2] registered a melting point of 142 °C. The compound further had an IC50 in data set [1] of 522 nM. In addition, in data set [2], the IC50 was less than 50 nM.

The compound `O=C(NOc1ccccc1)c1cc2c(-c3cc4ccccc4[nH]3)n[nH]c2s1` [Example 1, 3-(1H-indol-2-yl)-1H-thieno[2,3-c]pyrazole-5-(N-phenoxycarboxamide)] gave a melting point of 171 °C. Moreover, the IC50 in data set [1] was less than 100 nM. Besides, the IC50 in data set [2] is less than 50 nM.

`O=C(Nc1n[nH]c2sc(C(=O)NOc3ccccc3)cc12)c1cccs1` [Example 3, 3-[(thiophene-2-carbonyl)amino]-1H-thieno[2,3-c]pyrazole-5-(N-phenoxycarboxamide)hydrochloride]: the IC50 in data set [1] was less than 500 nM; in data set [2], less than 50 nM; in data set [3], less than 500 nM.

By melting point is commonly meant the temperature of the solid-liquid transition. The IC50 is the concentration at which inhibition is half-maximal.

For the origin of these results see patent publication US7884123B2, “Substituted thieno[2,3-c]pyrazoles, process for preparing them, compositions containing them, and use thereof” (Aventis Pharma S.A., priority 2004, dated 2011).
